The values that follow come from the pKa sets of Baltruschat and Czodrowski (2020).

Where “and” joins values, the source holds several entries; their conditions need not be identical. Identical values can stand only once.

The conditions of the first series: acidic group.
As a reminder, the pKa is the pH at which an ionisable group is half protonated. Read a low pKa as a group that gives up its proton readily. As for `CC/C(C)=C\C(=O)O`, the pKa came to 5.15.

The compound `COc1ccc2c(c1)CCC(=O)C2` came in with a pKa of 13.3.

For the compound `CC(C)COc1ccc(C(=O)O)cc1`, the pKa stood at 4.48.

The compound `COc1ccc(O)c(C)c1` showed a pKa of 10.2.

For the compound `FC(F)(F)c1cccc(NC=S)c1`, the pKa was determined as 10.8.

With `CC1CC(=O)N(O)C1(C)C` (centres undefined), the pKa is 8.85.

Regarding `Nc1c2[nH]cnc2nc[n+]1[O-]`, the pKa stood at 9.

The compound `N#CC(c1ccccc1)c1ccc([N+](=O)[O-])cc1` (centres undefined) yielded a pKa of 10.9.

`CCOC(=O)CC(C)=O` returned a pKa of 10.7.

On to `CCOC(=O)Nc1ncnc2nc[nH]c12`, for which the pKa stood at 9.63.

In turn, `CC1=NCCc2c1[nH]c1ccc([N+](=O)[O-])cc21` came in with a pKa of 12.6.

The compound `O=c1[nH]c2ccccc2nc1[O-]` showed a pKa of 12.3.

Turning to `Brc1ccc([P+](c2ccccc2)(c2ccccc2)C2c3ccccc3-c3ccccc32)cc1`, the pKa was 8.67.

Regarding `O=C(O)[C@H]1C[C@H]2CC[C@@H]1C2`, the pKa was 5.08.

In the case of `O=C(O)[C@@H]1CC[C@@H](C(=O)O)[Se]1`, the pKa amounted to 3.46.

Compound `Oc1nc2cc3ccccc3cc2[nH]1` came in with a pKa of 11.6.

Take `Nc1nc2c(ncn2[C@@H]2C[C@@H](O)[C@H](CO)O2)c(O)[nH+]1`: the pKa was -0.97.

In turn, `CCC(CC)C(=O)O[C@H]1O[C@@H](C(=O)O)[C@H](O)[C@@H](O)[C@@H]1O` displayed a pKa of 3.37.

Compound `COc1ccc(O)c([N+](=O)[O-])c1` yielded a pKa of 7.39.

`CCOC(=O)c1ccccc1-n1nc(O)cc1C` displayed a pKa of 12.3.

`Cc1[nH]c(-c2ccccc2S)[nH+]c1C` returned a pKa of 3.9.

Regarding `OC(c1ccncc1)(c1ccncc1)c1ccncc1`, the pKa is 11.8.

In turn, `c1ccc2c(c1)[nH]c1c2cc[n+]2cc3c(cc12)CCCC3` came in with a pKa of 10.6.

The compound `Cn1nc(/N=N/O)nc1N` displayed a pKa of 5.36.

For the compound `c1ccc(CNc2ncnc3[nH]ncc23)cc1`, the pKa stood at 10.9.

On to `CC(=O)N1C[C@@]2(C(C)C)OC(=O)C[C@H]2[C@@H]1C(=O)O`, for which the pKa is 3.2.

For the compound `Sc1cc[nH+]cc1`, the pKa came to 1.43.

`CCO[C@H]1C[C@H]1C(=O)O` had a pKa of 4.83.

The compound `CS(=O)c1cccc(O)c1` (centres undefined) returned a pKa of 8.75.

Compound `OC(c1ccncc1)n1cc[nH+]c1` (centres undefined) gave a pKa of 7.24.

Compound `CCC[NH+](CCC)CCCNC(=O)/C=N/O` returned a pKa of 8.73.

For `CCCc1cc(Cl)cc(Cl)c1O`, the pKa is 8.1.

As for `Oc1ccc2cc(I)ccc2c1`, the pKa is 9.23.

Take `COc1ccc2c(c1)nnn2O`: the pKa came out at 5.07.

As for `CC(=O)CC(=S)Nc1ccccc1`, the pKa stood at 7.5.

As to `CCC(C)CC(=O)O` (centres undefined), the pKa was 4.84.

As for `CC(C)(C(=O)O)C(C#N)c1ccccc1` (centres undefined), the pKa was found to be 3.95.

Turning to `N#C/C(=C\C(=O)O)c1ccccc1`, the pKa was 3.07.

Regarding `OCc1ccccc1O`, the pKa came out at 9.92.

For the compound `Oc1cccc(-c2ccccc2)c1`, the pKa came to 9.59.

The compound `Nc1ncnc2nc[nH]c12` gave a pKa of 9.74.

Turning to `NNC(=O)c1cccc(N)c1`, the pKa stood at 12.4.

Regarding `CC(=O)c1cc(C(C)=O)[nH]n1`, the pKa amounted to 8.98.

On to `Cn1c(=O)[nH]c2c(ncn2C)c1=O`, for which the pKa was found to be 6.3.

`O=C([O-])C1(C(=O)O)CC1` came in with a pKa of 7.31.

`COc1ccccc1/C=C/C=N/O` came in with a pKa of 10.8.

Compound `ONc1ccnc2ccccc12` had a pKa of 6.76.

The compound `CC(C)(C)C#CC(=O)O` displayed a pKa of 2.66.

`Cc1ccc(C(=S)Nc2ccccc2)cc1`: the pKa is 11.5.

In the case of `O=[N+]([O-])c1cc(Br)c(O)c(Br)c1`, the pKa worked out at 3.7.

`CC(C)[C@H]1C[NH2+][C@H](C(=O)O)[C@H]1CC(=O)O` displayed a pKa of 2.12.

In the case of `O=C(O)c1csc([N+](=O)[O-])c1`, the pKa was 3.24.

The compound `O=C([O-])C(CO)[NH2+]Cc1cc(Cl)ccc1O` (centres undefined) returned a pKa of 7.95.

In turn, `Cc1cc(C)c(O)c(C)c1` displayed a pKa of 10.9.

The compound `Oc1nsc2ccccc12` came in with a pKa of 7.01.

Compound `O=C1CNC(=O)N1` had a pKa of 9.12.

For `Nc1n[nH]c(N)c1/N=N/c1ccc(O)cc1`, the pKa was 7.81.

The compound `Oc1ccc2nc3ccccc3cc2c1` came in with a pKa of 8.81.

Take `COc1cc(S(C)=O)ccc1-c1nc2ncncc2[nH]1` (centres undefined): the pKa came to 8.91.

`O=C1Nc2ccccc2C1=O`: the pKa was 11.9.

Turning to `CC(=O)CC(=O)c1ccccc1`, the pKa was found to be 8.69.

As for `COC(=O)CC(=O)c1cccnc1`, the pKa amounted to 8.98.

`Cc1ccc(C(=O)C[S+](C)C)cc1` gave a pKa of 8.9.

As for `O=C(O)[C@@H]1CC[C@H](C(=O)O)C1`, the pKa was 4.24.

In turn, `C[Se](=O)O` came in with a pKa of 5.19.

Regarding `CC1=CC(=Nc2ccc(O)cc2)C=C(C)C1=O`, the pKa was 8.9.

On to `Sc1nnco1`, for which the pKa amounted to 3.85.

On to `CC(C)(C)Cc1ccc(O)cc1`, for which the pKa was 10.7.

Consider `C=C(C)[C@H]1C[NH2+][C@H](C(=O)[O-])[C@H]1CC(=O)O`, for which the pKa was 4.43.

Consider `CC(C)CCOc1ccccc1/C=C/C(=O)O`, for which the pKa is 4.85.

The same series, now with this note: basic group.
With `COc1cccc(C(=O)CCN2CCOCC2)c1`, the pKa was 7.1.

The compound `CN(C)c1ccc(N)cc1` displayed a pKa of 6.37.

The compound `CCCCCCN(CC(C)O)CC(C)O` (centres undefined) had a pKa of 8.5.

As for `CC[NH+](CC)CCCC(C)Nc1cc(C)nc2cc(Cl)ccc12` (centres undefined), the pKa was 8.52.

Regarding `Nc1c2[nH]cnc2nc[n+]1[O-]`, the pKa was found to be 2.6.

For the compound `c1ccc2[nH]c(-c3ccncc3)nc2c1`, the pKa is 10.8.

As to `CN(C)c1ccc(C2=CN3CCC2CC3)cc1`, the pKa was 9.82.

In turn, `CC[NH+](CC)CCCC(C)Nc1ccnc2ccccc12` (centres undefined) displayed a pKa of 8.81.

`CC(C)N(C)/C=N/c1ccc(-c2c[nH]cn2)cc1` showed a pKa of 8.72.

`CCOC(=O)Nc1ncnc2nc[nH]c12` yielded a pKa of 2.4.

In turn, `CC1=NCCc2c1[nH]c1ccc([N+](=O)[O-])cc21` returned a pKa of 6.37.

`C#CCCCCCN` came in with a pKa of 10.6.

For the compound `C(=C\c1nnnn1-c1ccccc1)/c1ccccc1`, the pKa was -2.3.

Turning to `Cc1cnc2c(c1)c(C)cc1c(C)c(C)cnc12`, the pKa is 6.07.

Take `[O-]c1ccncc1`: the pKa was determined as 11.1.

In turn, `CNCCc1ccccc1` displayed a pKa of 10.2.

In the case of `CCN(CC)c1ccc([N+](=O)[O-])cc1`, the pKa came out at 1.7.

For `O=[N+]([O-])c1cccc(Nc2ccccc2)c1`, the pKa is -1.27.

`CCCCN1CCCCC1C(=O)Nc1c(C)cccc1C` (centres undefined) came in with a pKa of 7.27.

With `CCN(CC)CCC(OC(=O)c1ccccc1)c1ccccc1` (centres undefined), the pKa stood at 7.53.

Compound `O=C([O-])[C@H](NCCN[C@@H](C(=O)[O-])c1ccccc1[O-])c1ccccc1[O-]` gave a pKa of 12.1.

As to `C[C@H]1[C@@H](N)[C@@H](C)[C@@H]([NH3+])[C@@H](C)[C@H]1N`, the pKa was 6.73.

Take `N#CCN1CCOCC1`: the pKa came out at 2.

In the case of `c1ccc(CNc2ncnc3[nH]ncc23)cc1`, the pKa is 4.16.

In turn, `COc1cc(C)n(-c2ccccc2)n1` gave a pKa of 1.5.

Compound `CCN1CC[C@]2(C)c3cc(O)ccc3C[C@H]1[C@H]2C` displayed a pKa of 9.42.

The compound `CNCC(C)C[NH2+]C` displayed a pKa of 8.29.

In the case of `CC[C@H]1[C@H](CC2=N/C(=C/c3[nH]c(C[C@@H]4NC(=O)[C@H](CC)[C@H]4C)c(C)c3CCC(=O)[O-])C(CCC(=O)[O-])=C2C)NC(=O)[C@@H]1C`, the pKa worked out at 7.6.

`Nc1nc([O-])c2ncn([C@@H]3C=C[C@H](CO)C3)c2n1` showed a pKa of 9.68.

`CN(C)c1ccc([NH+](C)C)cc1`: the pKa is 2.5.

In turn, `Cc1cc(C)cc(N)c1` returned a pKa of 4.81.

`CCN(CC)c1ccc(C(O)(c2ccccc2)c2ccc(N(CC)CC)cc2)cc1` had a pKa of 7.9.

In the case of `Cc1cc(-c2ncc[nH]2)nn1C`, the pKa was 6.2.

The compound `C[C@H](N)[C@H](O)c1ccccc1` came in with a pKa of 8.81.

The compound `Nc1ncnc2nc[nH]c12` showed a pKa of 4.2.

`NNC(=O)c1cccc(N)c1` displayed a pKa of 3.75.

The compound `CC(C)NNC1CC[NH+](C(C)C)CC1` gave a pKa of 6.3.

`NCCC[NH2+]CCCC[NH3+]` displayed a pKa of 8.35.

Compound `CC1CCN(C(C)C=C(c2cccs2)c2cccs2)CC1` (centres undefined) displayed a pKa of 8.2.

On to `CN(C)c1ccc(N2CCOCC2)cc1`, for which the pKa is 5.7.

As for `CC(C=C(c1cccs1)c1cccs1)N(C)C` (centres undefined), the pKa was determined as 8.95.

With `CCS[C@@H]1C(O)C2CC(=O)CC1N2C` (some centres undefined), the pKa is 4.9 and 5.4.

`CN(C)CCCN=C(c1ccccc1)c1ccccc1`: the pKa is 9.4.

As to `CCN(CC)CC(=O)NC1c2ccccc2-c2ccccc21`, the pKa worked out at 7.98.

Regarding `C1CNCCSCCNC1`, the pKa amounted to 12.

Compound `[SH2+]c1cccc2ncccc12` displayed a pKa of 3.31.

The compound `Nc1ccc(Sc2ccc(N)cc2)cc1` had a pKa of 4.25.

For the compound `c1ccc(-c2ncc[nH]2)cc1`, the pKa turned out to be 6.39.

`C1CCC(N2CCCC2)CC1` gave a pKa of 10.7.

Turning to `COc1ccc(N(C)CO)cc1`, the pKa turned out to be 4.59.

In turn, `Cc1cccc(N)c1` gave a pKa of 4.7.

Compound `COc1cccc2ccc(C)nc12` showed a pKa of 5.69.

For `Fc1cccc2[nH]cnc12`, the pKa amounted to 4.4.

For the compound `C[C@H](CCCNCc1ccccc1)[C@H]1CC[C@H]2[C@@H]3[C@@H](O)C[C@@H]4C[C@H](O)CC[C@]4(C)[C@H]3CC[C@]12C`, the pKa was 9.05.

`Nc1n[nH]c(N)c1/N=N/c1ccc(O)cc1` came in with a pKa of 3.48.

Consider `CCSC(=O)c1ccc(Cl)cc1`, for which the pKa was -5.02.

`COc1cnccn1` yielded a pKa of 0.75.

`c1ccc(C2=Nc3ccccc3CO2)cc1` gave a pKa of 3.48.

In turn, `Oc1ccc2nc3ccccc3cc2c1` gave a pKa of 5.52.

In turn, `Nc1ccncc1C(=O)[O-]` yielded a pKa of 9.1.

`COc1cc(S(C)=O)ccc1-c1nc2ncncc2[nH]1` (centres undefined): the pKa was 2.69.

Consider `C[C@@H]1CCC[C@H](C)N1C`, for which the pKa was 10.2.

As for `CCN(CC)CCCN(CC)CC`, the pKa turned out to be 10.2.

The compound `CCN(CC)CC(=O)NC1CCc2ccccc21` (centres undefined) had a pKa of 8.19.

For `CC(C)c1ccccn1`, the pKa came to 5.83.

For `COc1ccc(-c2cnc(-c3ccc(OC)cc3)o2)cc1`, the pKa was determined as 1.41.

`CCCn1nnnc1N` displayed a pKa of 1.8.

Turning to `Nc1cc[nH]n1`, the pKa is 4.11.

On to `Cc1noc(-c2ccccc2)c1C(=O)O`, for which the pKa amounted to 1.7.
